The record followed here is US20090082425A1 (priority 2007, published 2009).

The test relates to DU-145. Format: cell-based, human.

As for `CC(=O)O[C@H]1C(=O)[C@@]2(C)[C@H]([C@H](OC(=O)c3ccccc3)[C@]3(O)C[C@H](OC(=O)[C@H](O)[C@@H](NC(=O)c4ccccc4)c4ccccc4)C(C)=C1C3(C)C)[C@]1(OC(C)=O)CO[C@@H]1C[C@@H]2O` [Taxol], the “Cell survival rate (%)” value amounted to 63.88%.
